Measured values reported in US7452704B2, “Dehydrogenase and a gene encoding the same” (priority 2002, dated 2008).

T1: N-methyl-L-phenylalanine dehydrogenase (Pseudomonas putida, UniProt Q5FB93)
T1 construct: made in house
T1 sequence (Q5FB93 whole entry, looked up): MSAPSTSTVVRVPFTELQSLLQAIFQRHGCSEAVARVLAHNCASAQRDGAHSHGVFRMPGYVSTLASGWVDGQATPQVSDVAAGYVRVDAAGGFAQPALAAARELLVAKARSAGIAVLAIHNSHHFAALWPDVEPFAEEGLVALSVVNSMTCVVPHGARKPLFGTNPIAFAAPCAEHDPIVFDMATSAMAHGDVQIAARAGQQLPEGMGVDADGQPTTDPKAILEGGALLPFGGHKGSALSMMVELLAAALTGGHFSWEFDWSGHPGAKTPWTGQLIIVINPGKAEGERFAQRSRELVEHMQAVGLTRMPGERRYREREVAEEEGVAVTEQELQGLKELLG

T2: present dehydrogenase (Pseudomonas putida, UniProt Q5FB93)
T2 construct: made in house; host or cells: Escherichia coli BL21 (DE3) carrying pENMadh and pSTV28-GDH; crude cellular extract
T2 sequence (Q5FB93 1-341): T1 sequence (Q5FB93 whole entry, looked up)

B1: present enzyme: novel dehydrogenase from Pseudomonas putida ATCC 12633, polypeptide of SEQ ID No. 1 (protein, listed as Pseudomonas putida)
chain: T1 sequence (Q5FB93 whole entry, looked up)

Experiments:
Assay type in all cases: biochemical, Pseudomonas putida ATCC 12633
[1] = biological target: T3, N-methyl-L-phenylalanine dehydrogenase (Pseudomonas putida, UniProt Q5FB93); assay: Substrate specificity for keto acids with NADH as coenzyme (Example 11); conditions: keto acid 40 mM (β-phenylpyruvic acid 30 mM), NADH 0.3 mM, methylamine 180 mM, pH 10.0, 37° C.; pyruvic acid = 100%
T3 construct: made in house
Procedure: (§1) Purified form of the present enzyme was obtained from cloned Escherichia coli cells in the same way as in Example 5.
Enzyme activity was measured by adding thereto various keto acids shown in Table 4 to a final concentration of 40 mM (except for β-phenylpyruvic acid, which was 30 mM), NADH to a final concentration of 0.3 mM, bis-Tris propane buffer (pH 10.0) to a final concentration of 100 mM, and methylamine to a final concentration of 180 mM, and examining the change in absorbance of the reaction solution at 340 nm. The reaction temperature during measurement was 37° C.

[2] = biological target: T3, N-methyl-L-phenylalanine dehydrogenase; assay: Substrate specificity for keto acids with NADPH as coenzyme (Example 6); conditions: keto acid 10 mM, NADPH 0.2 mM, methylamine pH 10 60 mM, 37° C.; β-phenylpyruvic acid = 100%
Procedure: as §1
Enzyme activity was measured by adding thereto various keto acids shown in Table 3 to a final concentration of 10 mM, NADPH to a final concentration of 0.2 mM, and methylamine adjusted to pH 10 with sulfuric acid to a final concentration of 60 mM, and examining the change in absorbance of the reaction mixture at 340 nm. The reaction temperature during measurement was 37° C. Defining the activity of the enzyme when β-phenylpyruvic acid was used as the substrate as 100%, the results are shown in Table 3 for relative activity.

[3] = biological target: T3, N-methyl-L-phenylalanine dehydrogenase; assay: Reverse reaction with NAD as coenzyme (Example 13); conditions: N-methyl-L-alanine 50 mM, NAD 10 mM, pH 10.0, 37° C.
Procedure: as §1
Enzyme activity was measured by adding thereto N-methyl-L-alanine to a final concentration of 50 mM, NAD to a final concentration of 10 mM, and bis-Tris propane buffer (pH 10.0) to a final concentration of 100 mM, and examining the change in absorbance of the reaction mixture at 340 nm. The reaction temperature during measurement was 37° C. The activity was 7.8×10^−3 (u/mg of protein).

[4] = biological target: T3, N-methyl-L-phenylalanine dehydrogenase; assay: Substrate specificity for amines with NADPH as coenzyme (Example 14)
Procedure: as §1
Enzyme activity was measured by adding thereto various amines shown in Table 5 to a final concentration of 60 mM, NADPH to a final concentration of 0.2 mM, and β-phenylpyruvic acid to a final concentration of 10 mM, and examining the change in absorbance of the reaction solution at 340 nm. The reaction temperature during measurement was 37° C.

[5] = biological target: dehydrogenase represented by the amino acid sequence of SEQ ID No. 1 (Pseudomonas putida, UniProt Q5FB93); assay: Inhibition of dehydrogenase activity by divalent heavy metals; conditions: 0.01 mM
[6] = biological target: T1, N-methyl-L-phenylalanine dehydrogenase; assay: Optimal working temperature for the enzyme (Example 8); conditions: phenylpyruvic acid and methylamine as substrates, pH 10; listed as dehydrogenase represented by the amino acid sequence of SEQ ID No. 1
Procedure: Activity was measured using the same reaction conditions as in Example 6 and with methylamine-sulfuric acid (pH 10), except that the temperature was varied. The optimal temperature was 30 to 40° C.

[7] = biological target: T1, N-methyl-L-phenylalanine dehydrogenase; assay: Thermal stability of the enzyme (Example 10)
Procedure: The purified enzyme obtained in Example 5 was left at 25° C., 30° C., 35° C., 40° C., 45° C., and 50° C. for 30 minutes, and then measured for activity as in Example 7. The results are shown in FIG. 4 as remaining activity, with the activity of the untreated enzyme (left in ice) defined as 100.

[8] = biological target: T1, N-methyl-L-phenylalanine dehydrogenase; assay: Measurement of optimal pH when NADH is the coenzyme (Example 12); conditions: pyruvic acid 80 mM, NADH 0.3 mM, methylamine 180 mM, 37° C.
Procedure: as §1
Enzyme activity was measured by adding thereto pyruvic acid to a final concentration of 80 mM, NADH to a final concentration of 0.3 mM, and methylamine adjusted to various pH values with sulfuric acid to a final concentration of 180 mM, and examining the change in absorbance of the reaction mixture at 340 nm. The reaction temperature during measurement was 37° C. […] The optimal pH of the reaction was 9.5.

[9] = biological target: T1, N-methyl-L-phenylalanine dehydrogenase; assay: Measurement of optimal pH, NADPH (Example 7); conditions: phenylpyruvic acid and methylamine as substrates, 37° C.
Procedure: as §1
Enzyme activity was measured by adding thereto β-phenylpyruvic acid to a final concentration of 10 mM, NADPH to a final concentration of 0.2 mM, and methylamine adjusted to various pH values with sulfuric acid to a final concentration of 60 mM, and examining the change in absorbance of the reaction solution at 340 nm. The reaction temperature during measurement was 37° C. Defining the amount of enzyme that react with 1 micromole of β-phenylpyruvic acid per minute as 1 unit, the results are shown in FIG. 1 for the relationship between the number of units per protein amount (u/mg) and pH. The optimal pH of the reaction was 10.0.

[10] = biological target: T2, present dehydrogenase; assay: Activity of the present dehydrogenase in crude extract of co-expressing Escherichia coli (Example 18); conditions: crude cellular extract; pH 10.0, 0.2 mM NADPH, 30 mM methylamine, 10 mM sodium pyruvate, 30° C.
Procedure: Activity of the present dehydrogenase was measured in a reaction mixture containing 100 mM bis-trispropane buffer (pH 10.0), 0.2 mM NADPH, 30 mM methylamine, and 10 mM sodium pyruvate at 30° C. 1 U was defined as the amount of the enzyme capable of oxidizing 1 μmol of NADPH per minute under the above reaction conditions.

[11] = amine 60 mM, NADPH 0.2 mM, β-phenylpyruvic acid 10 mM, 37° C., methylamine = 100%

| Molecule | Relative activity [1] [%] | Relative activity [2] [%] | Relative activity [4, 11] [%] | further results |
| --- | --- | --- | --- | --- |
| CCCC(=O)C(=O)O [2-keto-n-valeric acid] | 7.5 | 53 | – | – |
| CCC(=O)C(=O)O [2-ketobutyric acid] | 15 | 98 | – | – |
| CCCCC(=O)C(=O)O [2-ketohexanoic acid] | 20 | 174 | – | – |
| CCCCCCC(=O)C(=O)O [2-ketooctanoic acid] | – | 25 | – | – |
| CN[C@@H](C)C(=O)O [N-methyl-L-alanine] | – | – | – | activity (reverse reaction) [3]: 7.8×10^−3 u/mg of protein |
| CCCN [N-propylamine] | – | – | 1.1 | – |
| N [ammonium] | – | – | – | Relative activity [4]: 0% |
| [Cl][Cu][Cl] [copper chloride (CuCl2), copper chloride] | – | – | – | effect on dehydrogenase activity [5]: inhibited |
| NC1CCCCC1 [cyclohexanamine] | – | – | 1.3 | – |
| CNC [dimethylamine] | – | – | 1.4 | – |
| CCN [ethylamine] | – | – | 1.5 | – |
| CC(C)N [isopropylamine] | – | – | 1.5 | – |
| [Cl][Hg][Cl] [mercury chloride (HgCl2), mercury chloride] | – | – | – | effect on dehydrogenase activity [5]: inhibited |
| CN [methylamine] | – | – | 100 | – |
| O=C(O)C(=O)Cc1ccccc1 [phenylpyruvic acid] | 0 | 100 | – | – |
| CC(=O)C(=O)O [pyruvic acid] | 100 | 334 | – | – |
| O=C(O)C(=O)CF [β-fluoropyruvic acid] | 4.2 | 90 | – | – |
| B1 | – | – | – | optimal temperature [6]: around 35 °C; remaining activity ([7]; left 30 minutes, up to 30° C., untreated enzyme = 100): 100%; temperature of thermal stability ([7]; treated at optimal pH (pH 10) for 30 minutes): < 30 °C; optimal pH [8]: 9.5; optimal pH [9]: 10.0; optimal pH ([9]; listed as dehydrogenase of the present invention): around 10; activity of the present dehydrogenase [10]: 6.6 U/mg of protein |
